Results taken from paper PMC11728000, “Antitumor Activity and Multi-Target Mechanism of Phenolic Schiff Bases Bearing Methanesulfonamide Fragments: Cell Cycle Analysis and a Molecular Modeling Study” (International Journal of Molecular Sciences, 2024).
Where two headings read alike, the source gives them in different places.

Columns and labels:
[1] = test system: M14; assay: NCI anticancer screening (SRB), Melanoma subpanel; assay type: cell-based, human; settings: for GI%: 10.0 µM in one dose
[2] = test system: HOP-62; assay: NCI anticancer screening (SRB), Non-Small Cell Lung Cancer subpanel; assay type: cell-based, human; settings: for GI%: 10.0 µM in one dose
[3] = test system: UACC-62; assay: NCI anticancer screening (SRB), Melanoma subpanel; assay type: cell-based, human; settings: for GI%: 10.0 µM in one dose
[4] = test system: OVCAR-8; assay: NCI anticancer screening (SRB), Ovarian Cancer subpanel; assay type: cell-based, human; settings: for GI%: 10.0 µM in one dose
[5] = test system: NCI-H522; assay: NCI anticancer screening (SRB), Non-Small Cell Lung Cancer subpanel; assay type: cell-based, human
[6] = test system: MCF-7 cells; assay: Annexin V-FITC/PI apoptosis assay; assay type: cell-based, human; settings: 24 h
[7] = test system: Ovarian Cancer subpanel tumor cell lines; assay: NCI anticancer screening, subpanel summary; assay type: cell-based; settings: Ovarian Cancer, mean over subpanel cell lines
[8] = test system: MCF-7 cells; assay: Cell cycle analysis (PI flow cytometry); assay type: cell-based, human; settings: 10 μM, 24 h
Description: Apoptosis is the primary mechanism by which potent chemotherapeutic agents destroy cancer cells. […] Flow cytometry measured cell growth in the G0-G1, S, and G2/M cell cycle phases.
Using the MCF-7 cell line, the cell cycle analysis was carried out like our previous investigation. A FACSCalibur flow cytometer was used to analyze the cells after they had been stained with DNA fluorochrome PI (Supplementary Materials). […]
photomultiplier voltage and for compensation setting adjustment to eliminate spectral overlap between the FL1 and the FL2 signals.
6. Cell cycle analysis
Breast carcinoma (MCF-7) cell was seeded at 2 × 10^5 cells/well density and incubated for 24 h in six-well plates. Foetal bovine serum (10%) was added, and the cells were incubated at 37 °C in an atmosphere of 5% CO2. The medium was replaced with 1% (v/v) DMSO containing 10.0 μM of […]
with 70% ethanol, rinsed with phosphate-buffered saline, and then stained with the DNA fluorochrome propidium iodide (PI) for 15 min at 37 °C. Then, samples were analyzed by flow cytometry using a FACSCalibur (Becton Dickinson). The cell cycle distributions were calculated using CellQuest software (Becton Dickinson). […]

[9] = test system: RPMI-8226; assay: NCI anticancer screening (SRB), Leukemia subpanel; assay type: cell-based, human
[10] = test system: Melanoma subpanel tumor cell lines; assay: NCI anticancer screening, subpanel summary; assay type: cell-based; settings: mean over subpanel cell lines
[11] = test system: NSC Lung Cancer subpanel tumor cell lines; assay: NCI anticancer screening, subpanel summary; assay type: cell-based; settings: NSC Lung Cancer, mean over subpanel cell lines
[12] = test system: SNB-75; assay: NCI anticancer screening (SRB), CNS Cancer subpanel; assay type: cell-based, human
[13] = test system: Renal Cancer subpanel tumor cell lines; assay: NCI anticancer screening, subpanel summary; assay type: cell-based; settings: mean over subpanel cell lines
[14] = test system: CNS Cancer subpanel tumor cell lines; assay: NCI anticancer screening, subpanel summary; assay type: cell-based; settings: mean over subpanel cell lines
[15] = test system: Breast Cancer subpanel tumor cell lines; assay: NCI anticancer screening, subpanel summary; assay type: cell-based; settings: Breast Cancer, mean over subpanel cell lines
[16] = test system: 59 human cancer cell lines; assay: NCI anticancer screening, full panel summary
[17] = test system: Colon Cancer subpanel tumor cell lines; assay: NCI anticancer screening, subpanel summary; assay type: cell-based; settings: mean over subpanel cell lines
[18] = test system: NCI-H322M; assay: NCI anticancer screening (SRB), Non-Small Cell Lung Cancer subpanel; assay type: cell-based, human
[19] = test system: HT29; assay: NCI anticancer screening (SRB), Colon Cancer subpanel; assay type: cell-based, human
[20] = test system: COLO 205; assay: as above; assay type: cell-based, human
[21] = test system: Leukemia subpanel tumor cell lines; assay: NCI anticancer screening, subpanel summary; assay type: cell-based; settings: Leukemia, mean over subpanel cell lines
[22] = test system: UACC-257; assay: NCI anticancer screening (SRB), Melanoma subpanel; assay type: cell-based, human
[23] = test system: Prostate Cancer subpanel tumor cell lines; assay: NCI anticancer screening, subpanel summary; assay type: cell-based; settings: mean over subpanel cell lines
[24] = Homo sapiens, five concentrations
[25] = Homo sapiens, read-out: LC50, subpanel average

For CS(=O)(=O)Nc1ccc(C(=O)NN=Cc2ccccc2O)cc1 [Compound 7], the GI% [1] was 44%, the GI% [2] was 61% and the GI% [3] was 35%. For the same compound, the GI% [4] was 32%.

CCN(CC)c1ccc(C=NNC(=O)c2ccc(NS(C)(=O)=O)cc2)c(O)c1 [Compound 8] showed a GI% ([5]; 10.0 µM in one dose) of 88%, a GI50 [5, 24] of 0.36 µM and a Necrosis [6] of 6.08%. For the same compound, the “Total Apoptosis” value ([6]; annexin V-FITC/PI) was 38.16%, the “Early Apoptosis” value ([6]; lower-right quadrant) was 22.49% and the “Late Apoptosis” value ([6]; upper-right quadrant) was 9.59%. For the same compound, the GI50 ([7]; Homo sapiens) was 1.03 µM, the CC50 [7, 25] was 94.9 µM and the GI50 [7] was 1.03 µM. The “TGI, subpanel average” value [7] was 52.90 µM, the “%G0–G1” value [8] was 51.94% and the “%G2-M” value [8] was 14.64%. For the same compound, the “%S” value [8] was 33.42%, the “Comment (cell cycle arrest phase)” value [8] was “Growth arrest@ S” and the GI% ([9]; 10.0 µM in one dose) was 84%. The GI50 ([9]; Homo sapiens, PRMI-8226, five concentrations) was 2.72 µM, the GI50 ([10]; Homo sapiens) was 0.563 µM and the CC50 [10, 25] was 93.6 µM. The “TGI, subpanel average” value [10] was 21.64 µM, the GI50 ([11]; Homo sapiens) was 0.622 µM and the CC50 [11, 25] was 94.9 µM. For the same compound, the “TGI, subpanel average” value [11] was 22.08 µM, the GI% ([12]; 10.0 µM in one dose) was 52% and the GI50 [12, 24] was 0.519 µM. For the same compound, the GI50 ([13]; Homo sapiens) was 0.826 µM, the CC50 [13, 25] was 80.6 µM and the “TGI, subpanel average” value [13] was 23.37 µM. It also gave a GI% [1] of 100%, a GI50 [1, 24] of 0.351 µM and a GI50 ([14]; Homo sapiens) of 0.451 µM. For the same compound, the CC50 [14, 25] was 86.6 µM, the “TGI, subpanel average” value [14] was 14.14 µM and the “TGI, subpanel average” value [15] was 15.22 µM. The GI50 ([15]; Homo sapiens) was 0.599 µM, the CC50 [15, 25] was 99.9 µM and the GI50 ([16]; Homo sapiens, read-out: GI50 MG-MID) was 0.501 µM. For the same compound, the GI50 ([16]; Homo sapiens, read-out: GI50 range over the cell lines) was 0.141 to 2.72 µM, the CC50 ([16]; Homo sapiens, read-out: LC50 MG-MID) was > 100 µM and the “TGI MG-MID” value ([16]; full panel mean-graph midpoint) was 46.8 µM. For the same compound, the “PCE (positive cytotoxic effect)” value ([16]; ratio of cell lines with growth inhibition > 10% to total cell lines, 10 µM single dose) was 59/59, the GI% [2] was 87% and the GI50 [2, 24] was 0.189 µM. It also gave a GI% [3] of 100%, a GI50 [3, 24] of 0.375 µM and a GI50 ([17]; Homo sapiens) of 0.4 µM. The LC50 (NCI-60 lethal concentration, subpanel average) ([17]; Homo sapiens) was 80.1 µM, the “TGI, subpanel average” value [17] was 30.53 µM and the GI% ([18]; 10.0 µM in one dose) was 75%. It also gave a GI50 [18, 24] of 0.258 µM, a GI% ([19]; 10.0 µM in one dose) of 73% and a GI50 ([19]; Homo sapiens, HT-29, five concentrations) of 0.495 µM. The GI% ([20]; 10.0 µM in one dose) was 94%, the GI50 [20, 24] was 0.349 µM and the GI50 ([21]; Homo sapiens) was 0.7 µM. The CC50 [21, 25] was > 100 µM, the “TGI, subpanel average” value [21] was 79.88 µM and the GI% [4] was 88%. The GI50 [4, 24] was 0.312 µM, the GI% ([22]; 10.0 µM in one dose) was > 100% and the GI50 [22, 24] was 0.463 µM. For the same compound, the GI50 ([23]; Homo sapiens) was 0.527 µM, the CC50 [23, 25] was 98 µM and the “TGI, subpanel average” value [23] was 60.80 µM.
